Patent US20060293264A1, “STAT3 decoy oligonucleotides and uses therefor” (priority 2004, published 2006)

Columns and labels:
[1] = system: PCI-15B cells; experiment: Gossypol dose response, MTT assays and cell counting; assay type: cell-based; conditions: 72 h, day 3 after treatment
Method: In FIG. 7, PCI-15B cells were treated with 0, 0.003, 0.03, 3, and 30 μM gossypol. After 3 days, MTT assays and cell counting experiments were performed. […] Bars indicate standard error. […] The STAT3 decoy will be combined with gossypol to determine the antitumor efficacy of the combination treatment.

[2] = system: GAS-responsive element; experiment: pGAS-Luc reporter gene assay in UM-22B SCCHN cells; assay type: cell-based; conditions: UM-22B pGAS-Luc, 2 μg transfected, 24 hrs, IFN-γ stimulation
Method: FIG. 9 depicts the inhibition of reporter gene expression from GAS-responsive element in SCCHN cells. An SCCHN cell line, UM-22B, was used to generate a stable cell line expressing a pGAS-Luc reporter gene (pGAS-Luc plasmid carrying 4 repeats of GAS sequence: [NT] ID NO: 31), was obtained from Stratagene, Catalog number: 219091-51). The cells were transfected with 2 μg of the STAT3 decoy or the control mutant decoy. At 24 hrs after transfection, luciferase activity was measured and normalized to the total amount of protein.

[3] = system: p53-responsive element; experiment: p53-Luciferase reporter gene assay in UM-22B SCCHN cells; assay type: cell-based; conditions: UM-22B p53-Luc, 2 μg transfected, 24 hrs
Method: FIG. 8 depicts the inhibition of reporter gene expression from a p53-responsive element in SCCHN cells. An SCCHN cell line, UM-22B, was used to generate a stable cell line expressing a p53-Luciferase (p53-Luc) reporter gene (The p53-Luc plasmid carrying 14 repeats of p53 transcription recognition sequence: 5'-[…] ID NO: 30)), was obtained from Stratagene, Catalog number: 219085-51). The cells were transfected with 2 μg of the STAT3 decoy or the control mutant decoy. At 24 hrs after transfection, luciferase (Luc) activity was measured and normalized to the total amount of protein according to standard methods.

[4] = target: T1, STAT1 (Homo sapiens, UniProt P42224); experiment: EMSA of STAT1 binding to the STAT3 decoy, PCI-15B nuclear extracts; conditions: supershift
T1 construct: Nuclear protein extracts of PCI-15B cells, prepared according to standard methods, were used for the EMSA; endogenous in cells; host or cells: PCI-15B cells (nuclear extract)
T1 sequence (P42224 2-750 limits assumed): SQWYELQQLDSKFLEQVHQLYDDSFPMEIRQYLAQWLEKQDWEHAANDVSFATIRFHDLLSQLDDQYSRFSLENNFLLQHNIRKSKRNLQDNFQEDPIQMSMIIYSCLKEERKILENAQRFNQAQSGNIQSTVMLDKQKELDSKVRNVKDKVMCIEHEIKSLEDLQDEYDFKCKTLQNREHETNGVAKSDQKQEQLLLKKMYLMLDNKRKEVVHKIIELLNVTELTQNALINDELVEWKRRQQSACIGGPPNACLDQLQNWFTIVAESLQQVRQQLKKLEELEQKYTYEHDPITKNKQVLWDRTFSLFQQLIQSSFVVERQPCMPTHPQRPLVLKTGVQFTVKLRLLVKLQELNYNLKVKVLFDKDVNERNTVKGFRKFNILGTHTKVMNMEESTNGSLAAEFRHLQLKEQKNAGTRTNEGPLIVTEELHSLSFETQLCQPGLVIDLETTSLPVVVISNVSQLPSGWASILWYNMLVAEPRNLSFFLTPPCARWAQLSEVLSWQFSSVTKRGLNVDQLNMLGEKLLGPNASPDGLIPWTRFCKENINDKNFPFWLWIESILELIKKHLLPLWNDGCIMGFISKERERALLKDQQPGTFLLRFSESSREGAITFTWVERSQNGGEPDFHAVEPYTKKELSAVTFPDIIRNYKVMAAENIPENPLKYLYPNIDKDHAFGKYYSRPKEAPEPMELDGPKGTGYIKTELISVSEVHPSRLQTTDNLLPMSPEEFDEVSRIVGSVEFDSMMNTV
Method: FIG. 10 depicts binding of STAT 1 to the STAT3 decoy in an electrophoretic mobility shift assay (EMSA). Nuclear protein extracts of PCI-15B cells, prepared according to standard methods, were used for the EMSA. The specificity of STAT1 or STAT3 binding to the STAT3 decoy was determined by supershifting with STAT1- or STAT3-specific antibodies, or both. The experiment has been repeated more than 3 times.

[5] = target: T2, STAT3 (Homo sapiens, UniProt P40763); experiment: EMSA of STAT3 decoy and derivative decoys, relative binding to STAT3
T2 construct: Whole cell extracts were prepared and EMSAs performed on 4% native polyacrylamide gels; endogenous in cells; host or cells: whole cell extracts
Method: Derivative decoys were identified by electrophoretic mobility shift assay, performed as described herein. Table 1 describes a number of STAT3 decoy derivatives along with their relative binding to STAT3.
Electrophoretic Mobility Shift Assay (EMSA). Whole cell extracts were prepared and EMSAs performed on 4% native polyacrylamide gels as described (Xi, S., et al. J Biol Chem, 278: 31574-31583, 2003 and Wong, P., etal. Mol Cell Biol, 14. 914-922, 1994). STAT3 activation was evaluated by using binding reactions with 20 μg of extracted protein, and radiolabeled high-affinity serum inducible element (hSIE) duplex oligonucleotide (Wagner et al., EMBO J. 9(13):4477-4484 (1990)). Quantification of the STAT3 signal was performed by scanning the SIF-A band using a Molecular Dynamics Personal Densitometer SI and IMAGEQUANT software. […] For supershift experiments, extracts were preincubated with STAT3 polyclonal antibody (C-20, Santa Cruz Biotechnology). Gel shift bands were quantified by densitometry and the Molecular Analyst software (AlphaDigidoc 1000, Alpha-Innotech) with normalization of each band to the positive control lysate run on that gel as described previously for STAT3 activation determinations (Grandis, J. R. et al. Proc Natl Acad Sci USA, 97: 4227-4232., 2000).

T2 sequence (P40763 2-770 limits assumed): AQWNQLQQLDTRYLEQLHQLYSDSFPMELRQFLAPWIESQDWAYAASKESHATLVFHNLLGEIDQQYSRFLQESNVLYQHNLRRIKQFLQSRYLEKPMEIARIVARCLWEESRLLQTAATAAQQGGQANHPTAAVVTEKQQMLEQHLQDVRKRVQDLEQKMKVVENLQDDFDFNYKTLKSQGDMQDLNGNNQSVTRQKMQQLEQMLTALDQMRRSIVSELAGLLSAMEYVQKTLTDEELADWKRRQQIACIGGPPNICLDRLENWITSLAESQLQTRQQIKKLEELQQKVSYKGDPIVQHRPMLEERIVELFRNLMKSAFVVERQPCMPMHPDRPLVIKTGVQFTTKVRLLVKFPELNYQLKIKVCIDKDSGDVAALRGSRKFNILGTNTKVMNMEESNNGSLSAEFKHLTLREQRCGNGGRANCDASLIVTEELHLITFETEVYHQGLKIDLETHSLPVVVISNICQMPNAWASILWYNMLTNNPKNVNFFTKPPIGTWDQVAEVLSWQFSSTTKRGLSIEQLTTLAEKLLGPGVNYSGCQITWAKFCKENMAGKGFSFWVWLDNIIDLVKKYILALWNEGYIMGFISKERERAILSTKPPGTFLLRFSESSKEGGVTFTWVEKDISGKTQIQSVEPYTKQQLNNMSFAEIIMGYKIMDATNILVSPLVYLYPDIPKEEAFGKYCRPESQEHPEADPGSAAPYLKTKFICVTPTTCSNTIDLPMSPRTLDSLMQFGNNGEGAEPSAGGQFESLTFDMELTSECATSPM

## Cc1cc2c(C(C)C)c(O)c(O)c(C=O)c2c(O)c1-c1c(C)cc2c(C(C)C)c(O)c(O)c(C=O)c2c1O [gossypol, 2,2′-bis-(Formyl-1,6,7-trihydroxy-5-isopropyl-3-methylnaphthalene)]
[1]
  IC50: 297 nM

## mutant control decoy: double-stranded oligonucleotide 5′-CATTTCCCTTAAATC-3′, 3′-GTAAAGGGAATTTAG-5′; same sequence as Mutant 3 of Table 1 [reference compound]
[2]
  reporter gene expression from a GAS-responsive element (STAT1 reporter activity): not
[3]
  p53 reporter activity: not
[4]
  binding to STAT1: not

B1: longer sequence: 5′-AGCTTGTCGACATTTCCCGTAAATCGTCGAG-3′, 3′-…-5′; longer decoy initially examined (nucleic acid, listed as Homo sapiens)
sense: AGCTTGTCGACATTTCCCGTAAATCGTCGAG
antisense: CTCGACGATTTACGGGAAATGTCGACAAGCT
modifications: listed as DNA, chemistry not given here
notes: longer decoy initially examined
[5]
  blocking STAT3 activation: effective
